Here are results for 15 compounds from patent US6362369B1, “Phthalic acid diamide derivatives fluorine-containing aniline compounds as starting material, agricultural and horticultural insecticides, and a method for application of the insecticides” (Nihon Nohyaku Co., Ltd., priority 1997, dated 2002).

Format in all cases: in vivo
Test [1] has as its system rice leafroller (Cnaphalocrocis medinalis). As to the kind of experiment: Insecticidal effect on rice leafroller (Test Example 3). The settings on record: 500 ppm; rice lamina immersed; third-instar larvae of rice leafroller; four days after inoculation; 25° C., humidity 70%. In outline:
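Groups of 10 third-instar larvae, in triplicate, are placed on air-dried lamina resting on wet filter paper. Incubation runs four days at 25° C with 70% humidity before survivors and dead are tallied.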

The subject of test [2] is diamondback moth (Plutella xylostella). Kind of test: Insecticidal effect on diamondback moth (Test Example 1). The following applies: diamondback moth; judged by the mortality criterion of Test Example 1. A digest of the protocol:
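Chinese cabbage seedlings carrying eggs laid by released adult moths were immersed in treatment, air-dried and held at 25° C. Hatched insects were counted six days after immersion, and mortality was calculated and scored against a fixed criterion. Three replicate groups of 10 insects were used.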

In test [3] the test system is common cutworm (Spodoptera Litura). Kind of test: Insecticidal effect on common cutworm (Test Example 2). The following applies: 500 ppm; cabbage leaf immersed; second-instar larvae of common cutworm; eight days after inoculation; 25° C. In outline: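 After the treated material air-dries, it goes into a dish, second-instar larvae are added, and the dish is closed. Incubation runs at 25° C. On day eight, dead and living larvae are scored, and the calculated mortality is rated on an effect scale.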

For the compound `CC(C)NC(=O)c1c(I)cccc1C(=O)Nc1ccc(OC(F)(F)F)cc1Br` [compound 406], the “Insecticidal effect, Test Example 3” value in test [1] is listed as “A (100)”. The “Insecticidal effect, Test Example 1” value in test [2] is recorded as “A (100)”. The “Insecticidal effect, Test Example 2” value in test [3] is “A (100)”.

Consider `CC(C)NC(=O)c1c(I)cccc1C(=O)Nc1ccc(C(F)(F)C(F)(F)C(F)(F)F)cc1Cl` [compound 407], for which the “Insecticidal effect, Test Example 3” value in test [1] is given as “A (100)”. For the same compound, in test [2], the “Insecticidal effect, Test Example 1” value is on record as “A (100)”. The “Insecticidal effect, Test Example 2” value in test [3] is “A (100)”.

Consider `CC(C)NC(=O)c1c(I)cccc1C(=O)Nc1ccc(OC(F)(F)F)cc1Cl` [compound 408], for which the “Insecticidal effect, Test Example 3” value in test [1] is recorded as “A (100)”. The “Insecticidal effect, Test Example 1” value in test [2] is given as “A (100)”. Besides, the “Insecticidal effect, Test Example 2” value in test [3] is “B (99-90)”.

Regarding `CC(C)NC(=O)c1c(I)cccc1C(=O)Nc1ccc(OC(F)F)cc1C(F)(F)F` [compound 409], in test [1], the “Insecticidal effect, Test Example 3” value is “A (100)”. Besides, the “Insecticidal effect, Test Example 1” value in test [2] is recorded as “A (100)”. The “Insecticidal effect, Test Example 2” value in test [3] is reported as “A (100)”.

With `CC(C)NC(=O)c1c(I)cccc1C(=O)Nc1ccc(OC(F)F)c(C(F)(F)F)c1` [compound 410], the “Insecticidal effect, Test Example 3” value in test [1] is on record as “A (100)”. Also, in test [2], the “Insecticidal effect, Test Example 1” value was “A (100)”. For the same compound, in test [3], the “Insecticidal effect, Test Example 2” value is on record as “A (100)”.

As for `CC(C)NC(=O)c1cccc(I)c1C(=O)Nc1ccc(C(F)(C(F)(F)F)C(F)(F)F)cc1` [compound 416], the “Insecticidal effect, Test Example 3” value in test [1] is recorded as “A (100)”. In addition, the “Insecticidal effect, Test Example 1” value in test [2] is listed as “A (100)”. Moreover, in test [3], the “Insecticidal effect, Test Example 2” value is “A (100)”.

With `CC(C)NC(=O)c1cccc(I)c1C(=O)Nc1ccc(C(F)(F)C(F)(F)C(F)(F)F)cc1` [compound 417], the “Insecticidal effect, Test Example 3” value in test [1] is reported as “A (100)”. For the same compound, in test [2], the “Insecticidal effect, Test Example 1” value was “A (100)”. Besides, in test [3], the “Insecticidal effect, Test Example 2” value is “A (100)”.

As for `CC(C)NC(=O)c1cccc(I)c1C(=O)Nc1ccc(OC(F)(F)C(F)OC(F)(F)C(F)(F)C(F)(F)F)cc1` (stereo not drawn) [compound 419], the “Insecticidal effect, Test Example 3” value in test [1] is “A (100)”. The “Insecticidal effect, Test Example 1” value in test [2] is “A (100)”. Further, in test [3], the “Insecticidal effect, Test Example 2” value was “A (100)”.

As for `CC(C)NC(=O)c1cccc(I)c1C(=O)Nc1ccc(SC(F)F)cc1` [compound 421], the “Insecticidal effect, Test Example 3” value in test [1] is “A (100)”. The “Insecticidal effect, Test Example 1” value in test [2] was “A (100)”. In test [3], the “Insecticidal effect, Test Example 2” value was “B (99-90)”.

Consider `Cc1cc(Br)ccc1NC(=O)c1c(I)cccc1C(=O)NC(C)C` [compound 430], for which, in test [1], the “Insecticidal effect, Test Example 3” value is reported as “D (79-50)”. For the same compound, the “Insecticidal effect, Test Example 1” value in test [2] is listed as “A (100)”. Moreover, the “Insecticidal effect, Test Example 2” value in test [3] is “D (79-50)”.

For `Cc1c(NC(=O)c2c(I)cccc2C(=O)NC(C)C)cccc1C(F)(F)F` [compound 435], the “Insecticidal effect, Test Example 3” value in test [1] was “A (100)”. Besides, the “Insecticidal effect, Test Example 1” value in test [2] is recorded as “A (100)”. For the same compound, the “Insecticidal effect, Test Example 2” value in test [3] is listed as “B (99-90)”.

For the compound `Cc1cc(C(F)(F)F)ccc1NC(=O)c1c(I)cccc1C(=O)NC(C)C` [compound 436], in test [1], the “Insecticidal effect, Test Example 3” value is “A (100)”. In test [2], the “Insecticidal effect, Test Example 1” value is “A (100)”. The “Insecticidal effect, Test Example 2” value in test [3] is listed as “B (99-90)”.

On to `Cc1cc(C(F)(F)C(F)(F)F)ccc1NC(=O)c1c(I)cccc1C(=O)NC(C)C` [compound 437], for which, in test [1], the “Insecticidal effect, Test Example 3” value is listed as “A (100)”. Also, in test [2], the “Insecticidal effect, Test Example 1” value was “A (100)”. In addition, the “Insecticidal effect, Test Example 2” value in test [3] is “C (89-80)”.

As for `Cc1cc(C(F)(F)C(F)(F)C(F)(F)F)ccc1NC(=O)c1c(I)cccc1C(=O)NC(C)C` [compound 438], in test [1], the “Insecticidal effect, Test Example 3” value is “A (100)”. Further, the “Insecticidal effect, Test Example 1” value in test [2] is “A (100)”. In test [3], the “Insecticidal effect, Test Example 2” value is given as “B (99-90)”.

Consider `Cc1cc(C(F)(C(F)(F)F)C(F)(F)F)ccc1NC(=O)c1c(I)cccc1C(=O)NC(C)C` [compound 439], for which the “Insecticidal effect, Test Example 3” value in test [1] was “A (100)”. Moreover, the “Insecticidal effect, Test Example 1” value in test [2] is “A (100)”. Further, in test [3], the “Insecticidal effect, Test Example 2” value is on record as “A (100)”.
